From patent US20110112184A1, “COMPOUNDS WITH GLYCIDIC STRUCTURE ACTIVE IN THE THERAPY OF SYSTEMIC AND LOCAL INFLAMMATION” (priority 2008, published 2011) come the findings set out here.

Data set [1] deals with mice treated with doxorubicin and 5-fluoruracil. The data set can be described thus: Chronic doxorubicin- and 5-fluoruracil-induced enterocyte injury in mice. In kind it is in vivo. The method, then:
FIG. 11. Serum levels of KC in untreated mice or mice submitted to acute treatment with doxorubicin or chronic treatment with doxorubicin and 5-fluorouracil. Untr=Untreated; Doxo 27 mg=Mice submitted to acute treatment with doxorubicin; Doxo 27 mg comp 4=Mice submitted to acute treatment with doxorubicin and concomitant p.o. administration of comp 4; Doxo cron=Mice submitted to chronic treatment with doxorubicin and 5-fluoruracil; Doxo cron comp 4=Mice submitted to chronic treatment with doxorubicin and 5-fluoruracil and concomitant p.o. administration of compound 4.
FIG. 13. Histology of the epithelium of the small intestine in mice after chronic treatment with doxorubicin and 5-fluoruracil (DOXO+FLUO) or chronic treatment with doxorubicin and 5-fluoruracil and concomitant administration of compound 4 (comp 4+DOXO+FLUO).
For the chronic model of enterocyte injury, doxorubicin was administered 1×/week for three weeks (7 mg/kg for the first two administrations, […] for the last administration). At the same times, mice were administered also 5-fluoruracil at 100 mg/kg. Administrations of the chemotherapeutics were performed intraperitoneally. Some of the mice were treated at the same times with compound 4 (25 μg/kg, orally). Recovery of the blood for the determination of circulating KC levels and subsequent sacrifice of the animals were performed at 72 h after the last treatment. […]

Data set [2] deals with SGLT-1-mediated intestinal glucose absorption. The experiment in a line: Glycemia in mice after oral glucose challenge. In kind it is in vivo. The note with it: plasma, mice challenged orally with 2.5 g/kg glucose + 250 μg/kg compound 4, 1 h. The method, then:
As such, it was argued that it might act as a functional antagonist of SGLT-1-mediated intestinal glucose absorption, and used for the control of hyperglycemia in type II diabetes. This possibility was tested in the following experiments.
In a first set of experiments mice were orally challenged with 2.5 g/kg of glucose with or without concomitant administration of compound 4 (250 μg/kg) and glycemia was measured after 1 h.

Data set [3] is described as follows: Stability of compound 4 towards pH variations by 1H-NMR. In kind it is physicochemical. The note with it: D2O, room temperature, spectra at 10 min, 4.5 h and 24 h. The method, then:
Stability of compound 4 towards pH variations is evaluated through ^1H-NMR analysis. Two samples are prepared, one in acidic conditions and one in basic conditions; the first is prepared by dissolving 2.3 mg in 550 μl of D2O and adjusting to pH 1.2 through DCl addition, while the second is prepared by dissolving 3 mg of compound 4 in 550 μl of D2O and adjusting to pH 12.5 through NaOD addition. The two samples are kept at room temperature and ^1H-NMR spectra thereof are recorded at time 10 min, 4.5 h and 24 h.
FIG. 1. ^1H-NMR spectra of compound 4 at pH 12.5 and at pH 1.2.

The subject of a further data set is mice treated with LPS. The data set can be described thus: Serum KC levels after oral LPS in mice (diarrhoea model). The format is in vivo. The note with it: compound 4 25 μg/kg oral, then LPS 50 mg/kg oral, serum after 4 h, ELISA. The method, then:
FIG. 3. Serum levels of cytokine KC from mice treated with LPS alone or LPS with comp 4. Untr=untreated; LPS=Mice treated with LPS alone; comp 4+LPS=Mice treated with comp 4+LPS; comp 4=Mice treated with comp 4 alone.
We tested whether oral pretreatment of mice with the compound 4 interferes with the increase in KC serum levels induced by LPS administration to mice. The dosage of compound 4 chosen for all in vivo experiments was 25 μg/kg. Mice (10/group) were treated orally with compound 4 (25 μg/kg), followed by oral treatment with LPS (50 mg/kg). Serum samples were collected after 4 h, and KC levels were evaluated by ELISA.

Data set [4] relates to LPS/GalN-induced shock in FVB mice. The data set can be described thus: LPS/galactosamine-induced shock in mice. The format is in vivo. The conditions noted are these: LPS 5 μg/mouse + GalN 40 mg/mouse i.p., compound 4 25 μg/kg (0.5 μg/mouse) p.o. The method, then: FIG. 4. Protection afforded by comp 4 in LPS-induced shock in mice. Untr=untreated; LPSGalN=Mice treated with LPS/GalN alone; LPSGalN Comp 4=Mice treated with LPS/GalN+Comp 4=Mice treated with Comp 4 alone.
Compound 4 was tested in LPS/galactosamine (GalN)-induced shock in mice. LPS shock was induced in 2-months old FVB mice through intraperitoneal (i.p). injection of 5 μg LPS/mouse (LPS from Salmonella enterica abortus equi) and 40 mg/mouse GalN (LPS/GalN).

The next data set relates to DSS-treated FVB mice. The data set can be described thus: Acute colitis (acute Crohn-like disease) induced by DSS 2% in mice. In kind it is in vivo. The note with it: acute model. The method, then:
FIG. 5. TNF-α levels in mice treated with DSS alone or DSS+comp 4. Untr=Untreated; DSS=Mice treated with DSS alone; DSS comp 4=Mice treated with DSS and comp 4;=Mice treated comp 4 alone.
In mice induced for acute Crohn's disease, modifications of epithelial permeability of the intestine were determined by measuring intestinal transmembrane resistance using the Ussing chamber. For this purpose, 2-months old FVB mice were administered dextran sulfate sodium (DSS) 2% in the drinking water for 7 days (Wirtz et al, 2007). […] Eventually, the serum levels of the inflammatory cytokine TNF-α were measured in mice treated with DSS alone or with DSS+4.

Turning to `CN(C)c1cccc2c(S(=O)(=O)NCC[C@H]3O[C@H](CO)[C@@H](O)[C@H](O)[C@H]3O)cccc12` [Compound 4, 5-(Dimethylamino)-N-[2′-(α-D-glucopyranosyl)ethyl]-1-naphthalenesulphonamide], the “Histology of the small intestine” value in data set [1] (chronic doxorubicin + 5-fluoruracil + compound 4 25 μg/kg orally) is recorded as “completely normal morphology”. In addition, the “circulating KC levels” value in data set [1] (doxorubicin 1×/week for three weeks + 5-fluoruracil 100 mg/kg i.p. + compound 4 25 μg/kg orally, 72 h after last treatment) was “brought the levels back to those observed in untreated mice”. In data set [2], the Glycemia levels stood at 150 mg/dL. Besides, the “Stability towards pH (degradation by 1H-NMR)” value in data set [3] (pH 1.2 (DCl)) and in data set [3] (pH 12.5 (NaOD)) was “no degradation” each time. Moreover, the “Serum KC levels” value with mice treated with LPS is “comparable to those of untreated mice”. The “Protection against LPS/GalN-induced shock” value in data set [4] was “full protection”. Also, in the data set on DSS-treated FVB mice (DSS 2% + compound 4), the “Serum levels of TNF-α (increase induced by DSS 2%)” value is on record as “strongly inhibited”. Moreover, the Intestinal transmembrane resistance with DSS-treated FVB mice (DSS 2% in drinking water 7 days + compound 4, Ussing chamber) is 49 Ω × cm^2.
